IC50 and IC90 data for 46 compounds are collected here from ChEMBL document CHEMBL4483862, “Open-source discovery of chemical leads for next-generation chemoprotective antimalarials” (2018).

The subject of this assay is Plasmodium berghei. The experiment in a line: Luciferase/luciferin-expressing antifolate-resistant parasites were used to infect a culture of HepG2 cells that were pre-incubated with compounds. Infected hepatocytes emit light due to the luciferase reaction. Assay results are presented as the percent inhibition of light emission compared to control. […]. The assay is classed as functional. Conditions: sporozoite; for IC50: read-out: LUCIFERASE INFECTION ASSAY - IC50; for IC90: read-out: LUCIFERASE INFECTION ASSAY - IC90.

What is called IC50 is the midpoint of a concentration-inhibition curve. By IC90 is commonly meant the concentration needed for an effect of 90%.

Molecules are shown by their SMILES. Where only a bound is given, the exact number is not on record here.

With `CC1CCN(CC(=O)Nc2cccc(C(=O)Nc3cccc(C(F)(F)F)c3)c2)CC1`, the half-maximal inhibitory concentration (IC50) was greater than 10 µM and the IC90 was greater than 10 µM.

Take `CCN(C(=O)CSc1nc2cc(C(=O)O)ccc2c(=O)n1Cc1ccccc1)c1ccccc1`: the IC50 is greater than 10 µM and the IC90 is greater than 10 µM.

For the compound `CCCn1c(O)nnc1SCC(=O)NC(C)C12CC3CC(CC(C3)C1)C2` (configuration not stated), the IC50 was greater than 10 µM and the IC90 was greater than 10 µM.

As for `COc1ccc(NC(=O)c2ccc(NC(=O)c3nc4nccc(C)n4n3)cc2)cc1`, the IC50 is greater than 10 µM and the IC90 was greater than 10 µM.

In the case of `Cc1cccc(C(=O)NCCC(=O)NCc2ccccc2F)c1`, the IC50 is greater than 10 µM and the IC90 is greater than 10 µM.

For `CC(C)(C)NC(=O)NC(=O)COC(=O)CNS(=O)(=O)c1ccc(Br)cc1Cl`, the IC50 is greater than 10 µM and the IC90 is greater than 10 µM.

Take `CCOc1ccc(NC(=O)c2ccc(NC(=O)CSc3nncs3)cc2)cc1`: the IC50 was greater than 10 µM and the IC90 was greater than 10 µM.

`COc1cc(/C=N/NC(=O)c2cc3c(s2)CCC(C)C3)ccc1OC(=O)c1ccco1` (configuration not stated): the IC50 is greater than 10 µM and the concentration for an effect of 90% (IC90) is greater than 10 µM.

`Cc1cccc(C)c1N(C(=O)CCNC(=O)c1ccccc1Cl)c1nc2ccccc2s1`: the IC50 was greater than 10 µM and the IC90 is greater than 10 µM.

For `CC(C)(C)c1ccc(-c2nnc(SCC(=O)N(Cc3ccccc3)c3nc(-c4ccc(Cl)cc4)cs3)n2-c2ccc(Br)cc2)cc1`, the IC50 was greater than 10 µM and the IC90 was greater than 10 µM.

As to `CC(=O)c1cc2c(cc1NC(=O)c1cccc(S(=O)(=O)N3c4ccccc4CC3C)c1)OCO2` (configuration not stated), the IC50 was greater than 10 µM and the IC90 was greater than 10 µM.

Turning to `Cc1cccc(/C=C2\SC(=O)N(CCC(=O)Nc3ccc(-c4nnc5n4CCCCC5)cc3)C2=O)c1`, the IC50 is greater than 10 µM and the IC90 is greater than 10 µM.

For `O=C(CN1c2cccc3cccc(c23)S1(=O)=O)N1CCN(C(=O)c2ccco2)CC1`, the IC50 was greater than 10 µM and the IC90 was greater than 10 µM.

`CN(CC(=O)Nc1ccc(F)c(F)c1F)C(C(=O)Nc1ccc(Cl)c(C(F)(F)F)c1)c1ccccc1` (configuration not stated): the IC50 turned out to be 6.74 µM and the IC90 is greater than 10 µM.

Turning to `Cc1cccc(C(=O)Nc2ccccc2C(=O)OCC(=O)c2c[nH]c3ccccc23)c1`, the IC50 is greater than 10 µM and the IC90 was greater than 10 µM.

As to `CSc1ccc(/C=N/OCC(=O)NCCc2ccc(Cl)cc2Cl)cc1`, the IC50 is greater than 10 µM and the IC90 was greater than 10 µM.

As to `CCOc1ccc(C(C)=O)cc1COC(=O)c1cc(-c2ccccc2)nc2c1c(C)nn2-c1ccccc1`, the IC50 is greater than 10 µM and the IC90 is greater than 10 µM.

In the case of `Cc1cccc2sc(N(Cc3ccccc3)C(=O)CSC(c3ccccc3)c3ccccc3)nc12`, the IC50 was greater than 10 µM and the IC90 is greater than 10 µM.

For `O=C(Nc1sc2c(c1-c1nc3ccccc3[nH]1)CCCC2)c1nc(-c2ccccc2)n(-c2ccccc2)n1`, the IC50 was determined as 9.63 µM and the IC90 is greater than 10 µM.

Turning to `OC12CC3CC(C1)CC(c1cc(-c4ccccc4Cl)c4cc(Cl)ccc4n1)(C3)C2`, the IC50 is greater than 10 µM and the IC90 is greater than 10 µM.

Regarding `CCOC(=O)CCCNC(=O)COC(=O)c1cc(-c2ccco2)nc2ccccc12`, the IC50 is greater than 10 µM and the IC90 is greater than 10 µM.

Take `O=C(CCc1nc(=O)c2ccccc2[nH]1)OC(C(=O)c1c[nH]c2ccccc12)c1ccccc1` (configuration not stated): the IC50 is greater than 10 µM and the IC90 is greater than 10 µM.

Take `O=C(Nc1nc(-c2ccc(F)cc2)cs1)c1cccc(S(=O)(=O)N2CCc3ccccc32)c1`: the IC50 was greater than 10 µM and the IC90 is greater than 10 µM.

Regarding `Cc1ccc(Cn2nc(C)c(/C=N/NC(=O)c3ccccc3NS(=O)(=O)c3cccs3)c2C)cc1`, the IC50 was greater than 10 µM and the IC90 is greater than 10 µM.

Turning to `CC(OC(=O)C1CCN(C(=O)c2ccc(Cl)cc2)CC1)C(=O)Nc1ccc([N+](=O)[O-])cc1C(F)(F)F` (configuration not stated), the IC50 was greater than 10 µM and the IC90 is greater than 10 µM.

As for `Cc1ccc(NC(=O)COc2ccc3c(=O)c(-c4ccccc4)c(C)oc3c2)cc1[N+](=O)[O-]`, the IC50 is greater than 10 µM and the IC90 was greater than 10 µM.

`O=C(CCC(=O)c1ccc2c(c1)OCCO2)OCn1nnc2ccccc2c1=O`: the IC50 is greater than 10 µM and the IC90 was greater than 10 µM.

For `O=C(NCC1COc2ccccc2O1)c1cccc(S(=O)(=O)N2CCC(Cc3ccccc3)CC2)c1` (configuration not stated), the IC50 is greater than 10 µM and the IC90 was greater than 10 µM.

Regarding `COc1ccc(N(CCC23CC4CC(CC(C4)C2)C3)S(=O)(=O)c2ccccc2)cc1`, the IC50 is greater than 10 µM and the IC90 is greater than 10 µM.

In the case of `O=C(CN1C(=O)NC2(CCCCC2)C1=O)NC1CCS(=O)(=O)C1` (configuration not stated), the half-maximal inhibitory concentration (IC50) was greater than 10 µM and the IC90 is greater than 10 µM.

With `COc1ccc(Cl)cc1NS(=O)(=O)c1cccc(C(=O)OC(C)C(=O)c2cc(C)n(-c3ccccc3)c2C)c1` (configuration not stated), the IC50 was greater than 10 µM and the IC90 is greater than 10 µM.

For `COc1ccc(CNC(=O)/C=C/c2csc(N(C(C)=O)c3cccc(C(F)(F)F)c3)n2)cc1`, the IC50 was greater than 10 µM and the IC90 is greater than 10 µM.

On to `O=C(NNC(=O)c1cc(F)c(F)c(F)c1F)c1ccc(COc2cccc3cccnc23)cc1`, for which the 50% inhibitory concentration (IC50) was greater than 10 µM and the IC90 was greater than 10 µM.

`CC1CC(C)CN(C(=O)c2ccccc2C(=O)OCC(=O)NCc2cccs2)C1` (configuration not stated): the half-maximal inhibitory concentration (IC50) was greater than 10 µM and the IC90 was greater than 10 µM.

Take `CCOc1ccc(C(C)=O)cc1CSc1nnc(-c2ccc(F)cc2)c2ccccc12`: the IC50 is greater than 10 µM and the IC90 was greater than 10 µM.

As to `CCOC(=O)c1c(C)oc(NC(=O)CSc2nnc(-c3ccccc3)n2-c2ccc(C)c(C)c2)c1C#N`, the IC50 is greater than 10 µM and the IC90 was greater than 10 µM.

For `CCOC(=O)c1c(-c2ccccc2)csc1NC(=O)C(C)OC(=O)c1ccccc1NS(=O)(=O)c1cccc(C(F)(F)F)c1` (configuration not stated), the IC50 was greater than 10 µM and the IC90 was greater than 10 µM.

Regarding `CC(OC(=O)c1ccc(=O)n(Cc2ccccc2)n1)C(=O)N1CCCc2ccccc21` (configuration not stated), the IC50 is greater than 10 µM and the IC90 was greater than 10 µM.

Regarding `CC(C)=CC(=O)Nc1scc(-c2ccccc2)c1C(=O)OCC(=O)N(CCC#N)c1cc(C)cc(C)c1`, the IC50 was greater than 10 µM and the IC90 is greater than 10 µM.

Regarding `Cc1cc(C)cc(OCC(O)CNC(C)CCC(C)C)c1` (configuration not stated), the IC50 was greater than 10 µM and the IC90 is greater than 10 µM.

Consider `CN(C)S(=O)(=O)c1ccc2oc3nnc(SCc4csc(-c5ccccc5)n4)n3c2c1`, for which the IC50 was greater than 10 µM and the IC90 is greater than 10 µM.

Regarding `CCCn1c(=O)c2ccccc2n2c(SCc3nc(=O)c4ccc(C(=O)O)cc4[nH]3)nnc12`, the IC50 is greater than 10 µM and the IC90 was greater than 10 µM.

As to `COC(=O)c1c(NC(=O)CN(C)Cc2ccc(OC(F)F)c(OC)c2)sc(C)c1C`, the IC50 is greater than 10 µM and the IC90 is greater than 10 µM.

With `CCOC(=O)c1c(-c2ccc(C)o2)csc1NC(=O)CN(C)CC(=O)Nc1ccc(Cl)c(C(F)(F)F)c1`, the IC50 is greater than 10 µM and the IC90 was greater than 10 µM.

Take `CCc1cc2c(=O)n(NC(=S)Nc3ccc(OC)cc3)cnc2s1`: the IC50 was greater than 10 µM and the IC90 was greater than 10 µM.

As to `Cn1c2ccccc2c2ccc(CC(=O)N/N=C/c3ccccc3)cc21`, the IC50 was greater than 10 µM and the IC90 was greater than 10 µM.
